Data as given in ChEMBL document CHEMBL1148205, “Strongylophorine-26, a new meroditerpenoid isolated from the marine sponge Petrosia (Strongylophora) corticata that exhibits anti-invasion activity” (J Nat Prod, 2004).
Values after ≈ are worked out from the molar mass of the structure shown. Active and inactive are the calls of the source. The rule behind the calls is not given here.

Assays:
Type in all cases: functional, cell-based
MDA-MB-231 [1] = test: Inhibition of human MDA-MB-231 cells invasion by Matrigel cell invasion assay
MDA-MB-231 [2] = test: Inhibition of human MDA-MB-231 cells invasion at <50 ug/mL by Matrigel cell invasion assay
MDA-MB-231 [3] = test: Inhibition of human MDA-MB-231 cells invasion at 2.5 ug/mL by Matrigel cell invasion assay

Row | IC50 (MDA-MB-231 [1]) | Structure (SMILES) | Activity (MDA-MB-231 [2]) | Activity (MDA-MB-231 [3])
1 | 7 µg/mL (≈ 16.4 µM) | C[C@@]12CC[C@@H]3[C@]4(CCC[C@]3(C)C(=O)OC4)[C@H]1CC[C@](C)(O)[C@H]2CC1=CC(=O)C=CC1=O |  | 
2 | 7 µg/mL (≈ 16.3 µM) | C[C@@]12CC[C@@H]3[C@]4(CCC[C@]3(C)C(=O)OC4)[C@H]1CC[C@](C)(O)[C@H]2Cc1cc(O)ccc1O [strongylophorine-8] |  | 
3 | 1 µg/mL (≈ 2.19 µM) | COC1=CC(=O)C=C(C[C@H]2[C@]3(C)CC[C@@H]4[C@]5(CCC[C@]4(C)C(=O)OC5)[C@H]3CC[C@]2(C)O)C1=O [strongylophorine-26] |  | Active

More lines, now with the values behind:

Row | Structure (SMILES) | IC50 (MDA-MB-231 [1]) | Activity (MDA-MB-231 [2]) | Activity (MDA-MB-231 [3])
4 | C=C1CCC[C@H]2[C@](C)(CC3=C(O)C(=O)C=C(OC)C3=O)[C@@H](C)CC[C@]12C |  | inactive | 
5 | NCCCNCCCN1CCCC/C=C\CCCCCCCC1 [MOTUPORAMINE C] | 0.3 µg/mL (≈ 0.927 µM) |  | 
